In one data set the test system is postmenopausal women. As to conditions: 32 postmenopausal women, average 19 months, versus 19 placebo-treated women; cited from earlier work.
Data set [1] in a line: Serum testosterone and estradiol concentrations in hypogonadal men treated with AndroGel for 24 months. The format is in vivo. The text has this:
(§1) Ten men with severe and untreated hypogonadism due to known disease were entered into the study. […] All ten subjects had secondary hypogonadism. Eight subjects had pituitary adenomas, one had pinealoma, and one had Kallmann's syndrome. Hypogonadism developed in adulthood in nine. […] The estimated duration of hypogonadism was 2-30 years (median, 5 years). […] Of the two who had been treated, one had not been treated for four years and the other for 20 years before entering the study. The median age at entry was 51 years (range 31-78).
Estradiol was measured by ultrasensitive immunoradiometric assay (DSL, Webster, Tex.). Intra- and interassay coefficients of variation were <10%.

For data set [2] the following is noted: cited from earlier work.
The subject of data set [3] is hypogonadal men. Briefly: Bone mineral density by DXA in hypogonadal men. The format is in vivo. How it is done: (§2) Ten men with severe and untreated hypogonadism due to known disease were entered into the study.
(§3) All subjects were assessed by dual energy X-ray absorptiometry (DXA) and magnetic resonance microimaging (μMRI) at 0, 6, 12 and 24 months. The hypogonadal subjects were also assessed for markers of bone metabolism at 0, 3, and 6 months.
Bone mineral density (BMD) of the anterior-posterior lumbar spine (L1-L4) and of the right hip was determined by DXA using Hologic densitometers (Hologic, Inc., Bedford, Mass.), a QDR-4500A for the first year of the study and a Dephi A for the second. […] Scans from the same subject were evaluated by the “compare” feature of the DXA instrument. The coefficients of variation for long-term instrument stability, as assessed by daily measurements of a phantom, were <0.9%.
For all parameters, changes from 0 to 24 months were tested by multivariate analysis of variance, one factor repeated measures design. If the change from 0 to 24 months was significant, pair-wise comparisons of each treatment time (6, 12, and 24 months) against pretreatment were determined with Dunnett's test. Missing values were imputed by the method of last observation carried forward. A type I error rate of 0.05 was used for determining statistical significance. SAS statistical software, version 9.1 (SAS Institute, Inc., Cary, N.C.) was used for all analysis.

Data set [4] concerns hypogonadal men. Briefly: Magnetic resonance microimaging (μMRI) of trabecular architecture of the right distal tibia. The format is in vivo.
From the text: as §1, §3
Magnetic resonance microimaging (μMRI) of the right distal tibia was performed using a Signa 1.5 Tesla MR scanner (GE Medical Systems, Milwaukee, Wis.) and a custom-designed receive-only radiofrequency phased array surface coil. The coil was placed on the anterior right tibia, the edge 1 cm proximal to the midpoint of the medial malleolus, and the right foot was immobilized. Twenty-eight images were obtained to map trabecular architecture. Song H K, et al., Magn. Reson. Med., 41:947-53 (1999). […] The data were processed using a custom-designed program written in IDL (Interactive Data Language, Boulder, Colo.). Wehrli F W, et al., J. Bone Miner. […] The data were motion-corrected, filtered and Fourier transformed. To ensure that the same volume was analyzed at each time point for each subject, the images corresponding to the 0, 6, 12, and 24 month examinations of each subject were matched for volume of interest by identifying similar trabecular features. After the volume of interest was selected manually on each of the matched slices by tracing a line approximately 1 mm from the endocortical boundary on the anterior half of the distal metaphysis, bone volume fraction maps were computed. Subvoxel processing yielded a voxel size of 69×69×103 μm^3. Hwang S N, et al., Magn. Reson. Med., 47 (2002). A cylindrical core measuring 6.85 mm in diameter was obtained from the center of the volume of interest. (FIG. 3).
Digital topological analysis of the trabecular network was performed on the entire volume of interest. Gomberg BR, et al., IEEE Trans. […] The topological class of each image voxel was determined, yielding the density of surface voxels, curve voxels, and voxels part of mutual junctions. The topological analysis began with binarization of the three-dimensional images, followed by skeletonization, which converted the plate-like elements of the trabecular network to surfaces and the rodlike elements to curves. Each voxel was then classified as belonging to a surface, curve, or junction between these voxel types. […] One composite parameter was the surface-to-curve ration, the ratio of all surface voxels to all curve voxels. The higher the ratio, the more intact in the trabecular network, and vice versa. The second composite parameter was the topological erosion index, a ratio of parameters that are expected to increase upon trabecular deterioration (Curve edge and curve interior voxels, surface and profile edges, and curve-curve junction voxels) to those expected to decrease (surface interior voxels and surface-surface junctions). The lower the topological erosion index, the smaller the degree to which the trabecular network has deteriorated. Trabecular thickness was determined by an independent program based on the concept of fuzzy distance transform. Saha P K, et al., IEEE Trans.
For all parameters, changes from 0 to 24 months were tested by multivariate analysis of variance, one factor repeated measures design. If the change from 0 to 24 months was significant, pair-wise comparisons of each treatment time (6, 12, and 24 months) against pretreatment were determined with Dunnett's test. Missing values were imputed by the method of last observation carried forward. […]

Data set [5] concerns hypogonadal men. In words: Markers of bone metabolism in hypogonadal men. The format is in vivo. How it is done:
as §2, §3
After an overnight fast, blood and a timed 2-hour urine sample were collected. Serum and urine samples were frozen at −70° C. The markers and methods of assay were as follows: bone-specific alkaline phosphatase (BAP), immunoradiometric assay (Tandem-R Ostase, Beckman-Coulter, Inc., Fullerton, Calif.); osteoprotegerin, enzyme-linked immunosorbent assay (American Laboratory Products Company, Windham, N.H.); intact N-terminal propeptide of type I procollagen (PINP), radioimmunoassay, (Orion Diagnostica UniQ, IDS, Inc. Fountain Hills, Ariz.); cross-linked N-telopeptides of type I collagen (NTx), enzyme-linked immunosorbent assay (Osteomark, Ostex International, Inc. Seattle, Wash.). For each assay, all samples were measured in a single assay run.

Where [6] appears, read: distal tibia, 24 Months of treatment.

Molecules are shown by their SMILES. “And” between values parts separate entries of the source, which are not always exact repeats. Identical values can stand only once. Like-named read-outs stand apart in the source and are kept apart here.

Take `CC[C@H](C)[C@H](NC(=O)[C@H](CCC(=O)O)NC(=O)[C@H](CO)NC(=O)[C@@H](NC(=O)[C@@H](N)CO)C(C)C)C(=O)N[C@@H](CCC(N)=O)C(=O)N[C@@H](CC(C)C)C(=O)N[C@@H](CCSC)C(=O)N[C@@H](Cc1cnc[nH]1)C(=O)N[C@@H](CC(N)=O)C(=O)N[C@@H](CC(C)C)C(=O)NCC(=O)N[C@@H](CCCCN)C(=O)N[C@@H](Cc1cnc[nH]1)C(=O)N[C@@H](CC(C)C)C(=O)N[C@@H](CC(N)=O)C(=O)N[C@@H](CO)C(=O)N[C@@H](CCSC)C(=O)N[C@@H](CCC(=O)O)C(=O)N[C@@H](CCCN=C(N)N)C(=O)N[C@H](C(=O)N[C@@H](CCC(=O)O)C(=O)N[C@@H](Cc1c[nH]c2ccccc12)C(=O)N[C@@H](CC(C)C)C(=O)N[C@@H](CCCN=C(N)N)C(=O)N[C@@H](CCCCN)C(=O)N[C@@H](CCCCN)C(=O)N[C@@H](CC(C)C)C(=O)N[C@@H](CCC(N)=O)C(=O)N[C@@H](CC(=O)O)C(=O)N[C@H](C(=O)N[C@@H](Cc1cnc[nH]1)C(=O)N[C@@H](CC(N)=O)C(=O)N[C@@H](Cc1ccccc1)C(=O)O)C(C)C)C(C)C` [rhPTH]: the “trabecular connectivity, in words” value in the data set with postmenopausal women is reported as “significantly increased their trabecular connectivity”.

As for `C[C@]12CC[C@H]3[C@@H](CCC4=CC(=O)CC[C@@]43C)[C@@H]1CC[C@@H]2O` [Testosterone], in data set [1] (male, human, serum, topical, AndroGel 5-10 g/day, month 3), the concentration at 3 months was 6.56 ng/mL and 22.8 nM. Moreover, the “serum testosterone concentration (in words)” value in data set [1] (throughout the 24 months of treatment) is reported as “remained normal”. Further, the “bound to protein in the blood” value in data set [2] (circulating testosterone) is 98%. Also, in data set [2] (in men), the “share bound weakly to albumin” value is reported as 60% and the “share of binding to sex hormone binding globulin (SHBG)” value is listed as “approximately 40%”. For the same compound, in the data set with hypogonadal men [3], the “Femoral Neck BMD, % Change 0-24 months” value was 2.1 ± 5.1%; the “Femoral Neck BMD, Change 0-24 months” value amounted to 0.016 ± 0.038 g/cm^2; the “Intertrochanteric BMD, % Change 0-24 months” value worked out at 4.4 ± 3.7%; the “Intertrochanteric BMD, Change 0-24 months” value is listed as 0.049 ± 0.037 g/cm^2. Further, in the data set with hypogonadal men [3], the “Spine BMD, % Change 0-24 months” value was found to be 7.4 ± 5.1%; the “Spine BMD, Change 0-24 months” value turned out to be 0.069 ± 0.053 g/cm^2; the “Total Hip BMD, % Change 0-24 months” value turned out to be 3.8 ± 3.4%; the “Total Hip BMD, Change 0-24 months” value is 0.034 ± 0.029 g/cm^2. Besides, in the data set on hypogonadal men [3], the “Trochanter BMD, % Change 0-24 months” value was found to be 4.0 ± 4.7%; the “Trochanter BMD, Change 0-24 months” value turned out to be 0.027 ± 0.030 g/cm^2; the “Ward's Triangle BMD, % Change 0-24 months” value is recorded as 5.1 ± 10.1%; the “Ward's Triangle BMD, Change 0-24 months” value amounted to 0.028 ± 0.060 g/cm^2. Moreover, in the data set on hypogonadal men [3] (24 Months of treatment), the “Femoral Neck BMD” value is recorded as 0.828 ± 0.145 g/cm^2, the “Intertrochanteric BMD” value stood at 1.206 ± 0.205 g/cm^2, the “Spine BMD” value is given as 1.000 ± 0.219 g/cm^2 and the “Total Hip BMD” value is 0.994 ± 0.162 g/cm^2. Further, in the data set on hypogonadal men [3] (24 Months of treatment), the “Ward's Triangle BMD” value turned out to be 0.616 ± 0.172 g/cm^2. Further, the “Spine BMD, % Change 0-24 months” value in the data set with hypogonadal men [3] (listed as testosterone) amounted to 7.4%. Moreover, in the data set on hypogonadal men [4] (distal tibia), the “Bone Volume Fraction, % Change 0-24 months” value was 5.0 ± 4.2%; the “Bone Volume Fraction, Change 0-24 months” value is 0.005 ± 0.004; the “Trabecular Thickness, % Change 0-24 months” value is 1.5 ± 0.5%; the “Trabecular Thickness, Change 0-24 months” value is recorded as 1.7 ± 0.6 μ. For the same compound, in the data set on hypogonadal men [4] (setting [6]), the “Bone Volume Fraction” value came to 0.103 ± 0.011 and the “Trabecular Thickness” value is 120.5 ± 3.8 μ. Moreover, in the data set on hypogonadal men [4] (distal tibia, listed as testosterone), the “Bone Volume Fraction, % Change 0-24 months” value worked out at 5%. Further, in the data set on hypogonadal men [4] (starting at 6 months), the “increase of trabecular thickness during treatment” value is recorded as approximately 2%. In the data set on hypogonadal men [5] (0 to 6 months), the “bone-specific alkaline phosphatase (BAP), in words” value is reported as “did not change”. The “serum intact N-terminal propeptide of type I procollagen (PINP)” value with hypogonadal men [5] (3 months of treatment) stood at 71.3 ± 32.1 µg/L. In the data set with hypogonadal men [5] (6 months of treatment), this compound had a Serum osteoprotegerin of 4.29 ± 0.82 pmol/L. In addition, the “Urine NTx, in words” value in the data set with hypogonadal men [5] (baseline to 6 months) is “did not change”.

The values are drawn from US20080058299A1, “Method of treating or preventing bone deterioration or osteoporosis” (priority 2005, published 2008).
